The test system of assay [1] is transient outward current (Ito) in rat ventricular cell. Kind of assay: Transient outward current (Ito), voltage clamp. Type of assay: cell-based. The following applies: for inhibition at 6 µM: Rattus norvegicus, read-out: Ito. An excerpt: (§1) Ventricular cells isolated from rats and guinea pigs were placed in a chamber mounted on an inverted microscope, the effects of the test compounds on the action potential and the membrane current were studied by single cell current clamp and voltage clamp technique.

In assay [2] the test system is delayed rectifier (IK) in guinea pig ventricular cell. Put plainly: Delayed rectifier potassium current (IK), voltage clamp. The following applies: Cavia porcellus, guinea pig ventricle cell, read-out: Degree of inhibition of IK. It counts as cell-based.
Source text: as §1

A further assay deals with myocyte action potential. Kind of assay: Action potential of myocytes, single cell current clamp. Type of assay: cell-based, rat.
Source text: as §1

For assay [3], the system named is calcium current (ICa) of rat ventricle cell. Put plainly: Calcium inward current (ICa), voltage clamp. Type of assay: cell-based.
Source text: as §1

The subject of assay [4] is rat right atria, left atria and right ventricular strips. Kind of assay: Contractile force and heart rate of isolated rat atria and right ventricle. The settings on record: n = 6, mean ± S.E.M. The protocol: Method: After anesthetizing rats with pentobarbital, the heart was taken out, both the atrium and the right ventricle were separately placed in 10 ml of Tyrode solution. The spontaneous contraction of the right atrium was recorded. The contraction of the left atrium and the right ventricle was driven by stimulation at a frquency of twice per second.

Assay [5] deals with sodium current (INa), sodium channel. Kind of assay: Sodium inward current (INa), voltage clamp. Type of assay: cell-based, rat. The following applies: for V1/2 of potential-dependent steady state inactivation of sodium current: control -60.9 mV.
Source text: as §1

For assay [6], the system named is guinea pig left atrium treated with 0.6 μM ouabain. Put plainly: Ouabain induced arrhythmia in guinea pig left atria. The settings on record: for minimal effective concentration: Cavia porcellus, read-out: Concentration that suppressed the ouabain-induced arrhythmia. The protocol: The left atrium of guinea pigs was first treated with 0.6 μM of ouabain and the contractile force was monitored.

The structures appear in SMILES notation. Read-outs that look alike come from different tables or passages of the source. Some results are limits rather than exact numbers.

This is an account of results in US5594033A, “Secoaporphine compound on arrhythmia” (National Science Council, priority 1993, dated 1997).

`COc1cc2ccc3c(CCN(C)C)cc(OC)c(OC)c3c2cc1OC` [compound 8, N-methylsecoglaucine]: in assay [1], the inhibition at 6 µM amounted to 70%.
For `COc1cc2c(ccc3c(CCN(C)Cc4ccccc4)cc(O)c(OC)c32)cc1O` [compound 5, N-benzylsecoboldine], the inhibition at 1 µM in assay [2] is 30%. In assay [1] (3 μM, rat ventricular cell), the “Inhibitory effect on transient outward current (Ito) versus quinidine” value is given as “more profound inhibitory effect”.
For the compound `C=C[C@H]1C[N@@]2CC[C@H]1C[C@@H]2[C@@H](O)c1ccnc2ccc(OC)cc12` [quinidine, reference compound], the inhibition at 3 µM in assay [1] (3 μM, rat ventricular cell, read-out: Reduction of Ito) was ~60%. For the same compound, the Action potential plateau result in the assay with myocyte action potential (30 MM) is “decreased action potential plateau”.
As to `COc1cc2ccc3c(CCN(C)C)cc(O)c(OC)c3c2cc1OC` [compound 9, N-methylsecopredicentrine], in assay [1], the inhibition at 6 µM is 60%.
For the compound `C=CCN(C)CCc1cc(O)c(OC)c2c1ccc1cc(O)c(OC)cc12` [compound 1, N-allylsecoboldine], the inhibition at 1 µM in assay [2] was 20 to 30%. In addition, in assay [2] (3 μM), the inhibition at 3 µM is 50 to 60%. Also, the inhibition at 9 µM in assay [2] (9 μM) fell in the range of 70 to 80%. For the same compound, in assay [1] (FIG. 6, 0.6 μM), the “Shift of the potential-dependent inactivation curve of Ito” value was “to the right”. The “Inhibitory effect on calcium current” value in assay [3] (3 μM) was “did not show any inhibitory effect”. Besides, the activity at 12 µM in assay [3] (12 μM, added in cumulative manner, rat ventricle cell, read-out: Calcium current (ICa), % of control) was found to be 71%. Moreover, in assay [3] (Rattus norvegicus, 0.1 h, 12 μM, non-treated cell retained 79% at 6 minutes, read-out: Actual degree of inhibition in calcium current, corrected for spontaneous rundown), the inhibition at 12 µM stood at 9%. For the same compound, the activity at 9 µM in assay [4] (left atria driven at 2 Hz, read-out: Contractile tension (%)) is 126 ± 6.3%; in assay [4] (right atria, spontaneous beating rate, read-out: H. R. (%)) it was 58.5 ± 3.4%; in assay [4] (right atria, spontaneous contraction, read-out: Contractile tension (%)) it was 164 ± 14%; in assay [4] (right ventricle strips driven at 2 Hz, read-out: Contractile tension (%)) it was 126 ± 7.3%. Also, in the assay with myocyte action potential (1 μM), the “Prolongation of the myocyte action potential” value is recorded as “prolongation of the myocyte action potential was seen”. Moreover, the “Duration of the action potential (prolonged to)” value in the assay with myocyte action potential (3 μM, driven at 0.2 Hz) was “five”. For the same compound, in the assay on myocyte action potential (concentration not given, FIG. 4), the Action potential plateau entry is listed as “increased it”. Moreover, the “V1/2 of potential-dependent steady state inactivation of sodium current” value in assay [5] (3 μM) is recorded as -70.8 mV; in assay [5] (9 μM), -85.9 mV. Moreover, in assay [5] (0.9 to 1.2 μM, guinea pig atrial cell or rat ventricle cell), the “Sodium current, % of control” value is 25 % of control.
As for `COc1cc2c(ccc3c(CCN(C)C#N)cc(O)c(OC)c32)cc1O` [compound 26, N-cyanosecoboldine], in assay [1], the inhibition at 6 µM was 80%.
As for `C=CCN(C)CCc1cc(OC)c(OC)c2c1ccc1cc(OC)c(OC)cc12` [compound 4, N-allylsecoglaucine], the “Effect on the myocyte action potential” value in the assay on myocyte action potential (compared with N-allylsecoboldine) was “very similar effect on the myocyte action potential as N-allylsecoboldine”. In addition, in assay [6] (FIG. 12, ouabain 0.6 μM), the “Arrhythmia induced by Ouabain: effect on rhythm” value is “conversion to normal paced rhythm”.
`C=CCN(C)CCc1cc(O)c(OC)c2c1ccc1cc(OC)c(OC)cc12` [compound 3, N-allylsecopredicentrine]: the minimal effective concentration in assay [6] is 30 µM.
For `CCN(CC)CC(=O)Nc1c(C)cccc1C` [lidocaine, reference compound], the minimal effective concentration in assay [6] (guinea pig atrium, 0.6 μM ouabain) is ≥ 30 µM.
